#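 All cell lines were grown in 96-well plates and treated with compound for 48 hours. GI50 is the concentration that inhibits growth by half. TGI denotes the concentration required for complete inhibition of growth.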
# Columns and labels:
# Test in all cases: NCI tumour cell line growth inhibition, 48 h
# SNB-75 CNS = system: SNB-75 CNS
# HOP-62 NSCLC = system: HOP-62 NSCLC
# TK-10 renal = system: TK-10 renal
# OVCAR-5 ovarian = system: OVCAR-5 ovarian
# NCI-H522 lung = system: NCI-H522 lung
# M14 melanoma = system: M14 melanoma
# MOLT-4 leukemia = system: MOLT-4 leukemia
# UACC-62 melanoma = system: UACC-62 melanoma
# OVCAR-8 ovarian = system: OVCAR-8 ovarian
# OVCAR-4 ovarian = system: OVCAR-4 ovarian
# UACC-257 melanoma = system: UACC-257 melanoma
# RPMI-8226 leukemia = system: RPMI-8226 leukemia
# A549 NSCLC = system: A549 NSCLC
# NCI-H226 lung = system: NCI-H226 lung
# HS 578T breast = system: HS 578T breast
# 786-0 renal = system: 786-0 renal
# HOP-92 NSCLC = system: HOP-92 NSCLC
# MDA-MB-435 = system: MDA-MB-435
# CCRF-CEM leukemia = system: CCRF-CEM leukemia
# SF-295 CNS = system: SF-295 CNS
# CAKI-1 renal = system: CAKI-1 renal
# COLO 205 colon = system: COLO 205 colon
# A498 renal = system: A498 renal
# BT-549 breast = system: BT-549 breast
# NCI-H23 lung = system: NCI-H23 lung
# SR leukemia = system: SR leukemia
# SF-539 CNS = system: SF-539 CNS
# HL-60(TB) leukemia = system: HL-60(TB) leukemia
# MCF7 breast = system: MCF7 breast
smiles,measurement,setting,value
CC(=O)O[C@@H]1C(=O)N(c2cnccn2)[C@H]1c1ccccc1[N+](=O)[O-],GI50,SNB-75 CNS,357 nM
same,TGI,SNB-75 CNS,3100 nM
same,GI50,HOP-62 NSCLC,1140 nM
same,TGI,HOP-62 NSCLC,18300 nM
same,GI50,TK-10 renal,14000 nM
same,TGI,TK-10 renal,49900 nM
same,GI50,OVCAR-5 ovarian,550 nM
same,TGI,OVCAR-5 ovarian,16600 nM
same,GI50,NCI-H522 lung,184 nM
same,TGI,NCI-H522 lung,436 nM
same,GI50,M14 melanoma,323 nM
same,TGI,M14 melanoma,5980 nM
same,GI50,MOLT-4 leukemia,452 nM
same,TGI,MOLT-4 leukemia,> 100000 nM
same,GI50,UACC-62 melanoma,327 nM
same,TGI,UACC-62 melanoma,18800 nM
same,GI50,OVCAR-8 ovarian,299 nM
same,TGI,OVCAR-8 ovarian,946 nM
same,GI50,OVCAR-4 ovarian,720 nM
same,TGI,OVCAR-4 ovarian,> 100000 nM
same,GI50,UACC-257 melanoma,992 nM
same,TGI,UACC-257 melanoma,63000 nM
same,GI50,RPMI-8226 leukemia,384 nM
same,TGI,RPMI-8226 leukemia,22800 nM
same,GI50,A549 NSCLC,410 nM
same,TGI,A549 NSCLC,> 100000 nM
same,GI50,NCI-H226 lung,527 nM
same,TGI,NCI-H226 lung,9400 nM
same,GI50,HS 578T breast,920 nM
same,TGI,HS 578T breast,> 100000 nM
same,GI50,786-0 renal,551 nM
same,TGI,786-0 renal,13400 nM
same,GI50,HOP-92 NSCLC,356 nM
same,TGI,HOP-92 NSCLC,10900 nM
same,GI50,MDA-MB-435,205 nM
same,TGI,MDA-MB-435,456 nM
same,GI50,CCRF-CEM leukemia,435 nM
same,TGI,CCRF-CEM leukemia,> 100000 nM
same,GI50,SF-295 CNS,865 nM
same,TGI,SF-295 CNS,12400 nM
same,GI50,CAKI-1 renal,487 nM
same,TGI,CAKI-1 renal,13300 nM
same,GI50,COLO 205 colon,3020 nM
same,TGI,COLO 205 colon,11800 nM
same,GI50,A498 renal,> 100000 nM
same,TGI,A498 renal,> 100000 nM
same,GI50,BT-549 breast,295 nM
same,TGI,BT-549 breast,1240 nM
same,GI50,NCI-H23 lung,369 nM
same,TGI,NCI-H23 lung,13000 nM
same,GI50,SR leukemia,350 nM
same,TGI,SR leukemia,> 100000 nM
same,GI50,SF-539 CNS,234 nM
same,TGI,SF-539 CNS,575 nM
same,GI50,HL-60(TB) leukemia,288 nM
same,GI50,MCF7 breast,352 nM

# Source: PubChem BioAssay (NCI)
